Values after ≈ are worked out from the molar mass of the structure shown.
Assays:
E. faecalis VSE 1 = assay: MIC, broth microdilution, vancomycin-sensitive E. faecalis (VSE 1); assay type: cell-based, Enterococcus faecalis; details: for MIC: Enterococcus faecalis VSE 1 (vancomycin-sensitive), read-out: MIC; for MIC-fold improvement vs. vancomycin: VSE 1, ratio of MIC of vancomycin and MIC of analogue
In short: (§1)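 Susceptibility was scored by broth microdilution (CLSI). In one instance each vancomycin analog or control antibiotic was tested in the presence of vancomycin, 10 μM final, and ultrapure water plus non-inoculated broth were included as controls.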

E. faecalis VRE 6 = assay: MIC, broth microdilution, vancomycin-resistant E. faecalis VRE 6 (VanA); assay type: cell-based, Enterococcus faecalis; details: for MIC: Enterococcus faecalis VRE 6 (vancomycin-resistant), read-out: MIC; for MIC-fold improvement vs. vancomycin: VRE 6, ratio of MIC of vancomycin and MIC of analogue
In short: as §1

E. faecalis VRE 53 = assay: MIC, broth microdilution, vancomycin-resistant E. faecalis VRE 53 (VanA); assay type: cell-based, Enterococcus faecalis; details: for MIC: Enterococcus faecalis VRE 53 (vancomycin-resistant), read-out: MIC; for MIC-fold improvement vs. vancomycin: VRE 53, ratio of MIC of vancomycin and MIC of analogue
In short: as §1

E. faecalis VRE 29 = assay: MIC, broth microdilution, vancomycin-resistant E. faecalis VRE 29 (VanA); assay type: cell-based, Enterococcus faecalis; details: for MIC: Enterococcus faecalis VRE 29 (vancomycin-resistant), read-out: MIC; for MIC-fold improvement vs. vancomycin: VRE 29, ratio of MIC of vancomycin and MIC of analogue
In short: as §1

E. faecalis VRE 37 = assay: MIC, broth microdilution, vancomycin-resistant E. faecalis VRE 37 (VanA); assay type: cell-based, Enterococcus faecalis; details: for MIC: Enterococcus faecalis VRE 37 (vancomycin-resistant), read-out: MIC; for MIC-fold improvement vs. vancomycin: VRE 37, ratio of MIC of vancomycin and MIC of analogue
In short: as §1

[1] = system: Murine leukemia (L1210) cells; assay: Cytostatic activity, L1210 cell proliferation; assay type: cell-based; details: mean ± SD of three experiments; highest concentration tested 250 µM; 2 days; read-out: Toxicity (IC50) L1210
In short: (§2)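 Readout: Coulter cell number after drug exposure at 37°C. Durations differ by line (L1210 2 days; CEM 3 days; HeLa 4 days). Stock suspension 300,000–500,000 cells/mL, diluted by mixing with compound. Endpoint: IC50 vs negative control.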

[2] = system: human T-lymphocyte (CEM) cells; assay: Cytostatic activity, CEM cell proliferation; assay type: cell-based; details: mean ± SD of three experiments; highest concentration tested 250 µM; 3 days; read-out: Toxicity (IC50) CEM
In short: as §2

[3] = system: human cervix carcinoma (HeLa) cells; assay: Cytostatic activity, HeLa cell proliferation; assay type: cell-based; details: mean ± SD of three experiments; highest concentration tested 250 µM; 4 days; read-out: Toxicity (IC50) HeLa
In short: as §2

[4] = system: L1210, CEM and HeLa cell lines; assay: Cytostatic activity, average or summary over L1210, CEM and HeLa; assay type: cell-based; details: average of L1210, CEM and HeLa; read-out: Toxicity (IC50) Average
In short: as §2

[5] = system: S. aureus VSSA (ATCC 6538); assay: MIC, broth microdilution, vancomycin-sensitive S. aureus (VSSA/MSSA, ATCC 6538); assay type: cell-based, Staphylococcus aureus; details: for MIC: Staphylococcus aureus VSSA, read-out: MIC; for MIC-fold improvement vs. vancomycin: VSSA, ratio of MIC of vancomycin and MIC of analogue
In short: as §1

S. aureus VISA/HIP5827 = assay: MIC, broth microdilution, vancomycin-intermediate S. aureus VISA HIP5827; assay type: cell-based, Staphylococcus aureus; details: for MIC: Staphylococcus aureus VISA/HIP5827, read-out: MIC; for MIC-fold improvement vs. vancomycin: VISA/HIP5827, ratio of MIC of vancomycin and MIC of analogue
In short: as §1

S. aureus VRSA = assay: MIC, broth microdilution, vancomycin-resistant S. aureus (VRSA); assay type: cell-based, Staphylococcus aureus; details: for MIC: Staphylococcus aureus VRSA, read-out: MIC; for MIC-fold improvement vs. vancomycin: VRSA, ratio of MIC of vancomycin and MIC of analogue
In short: as §1

MRSA KS2 = assay: MIC, broth microdilution, MRSA KS2; assay type: cell-based, Staphylococcus aureus; details: for MIC-fold improvement vs. vancomycin: MRSA KS2, ratio of MIC of vancomycin and MIC of analogue; for MIC: Staphylococcus aureus MRSA KS2, read-out: MIC
In short: as §1

MRSA KS6 = assay: MIC, broth microdilution, MRSA KS6; assay type: cell-based, Staphylococcus aureus; details: for MIC-fold improvement vs. vancomycin: MRSA KS6, ratio of MIC of vancomycin and MIC of analogue; for MIC: Staphylococcus aureus MRSA KS6, read-out: MIC
In short: as §1

MRSA KS89 = assay: MIC, broth microdilution, MRSA KS89; assay type: cell-based, Staphylococcus aureus; details: for MIC-fold improvement vs. vancomycin: MRSA KS8, ratio of MIC of vancomycin and MIC of analogue; for MIC: Staphylococcus aureus MRSA KS8, read-out: MIC
In short: as §1

MRSA KS1 = assay: MIC, broth microdilution, MRSA KS1; assay type: cell-based, Staphylococcus aureus; details: for MIC-fold improvement vs. vancomycin: MRSA KS1, ratio of MIC of vancomycin and MIC of analogue; for MIC: Staphylococcus aureus MRSA KS1, read-out: MIC
In short: as §1

| Structure (SMILES) | MIC (E. faecalis VSE 1) | MIC-fold improvement vs. vancomycin (E. faecalis VSE 1) | MIC (E. faecalis VRE 6) | MIC-fold improvement vs. vancomycin (E. faecalis VRE 6) | MIC (E. faecalis VRE 53) | MIC-fold improvement vs. vancomycin (E. faecalis VRE 53) | MIC (E. faecalis VRE 29) | MIC-fold improvement vs. vancomycin (E. faecalis VRE 29) | MIC (E. faecalis VRE 37) | MIC-fold improvement vs. vancomycin (E. faecalis VRE 37) | IC50 [1] | IC50 [2] | IC50 [3] | IC50 [4] | MIC [5] | MIC-fold improvement vs. vancomycin [5] | MIC (S. aureus VISA/HIP5827) | MIC-fold improvement vs. vancomycin (S. aureus VISA/HIP5827) | MIC (S. aureus VRSA) | MIC-fold improvement vs. vancomycin (S. aureus VRSA) | also measured |
| --- | --- | --- | --- | --- | --- | --- | --- | --- | --- | --- | --- | --- | --- | --- | --- | --- | --- | --- | --- | --- | --- |
| CN[C@H](CC(C)C)C(=O)N[C@H]1C(=O)N[C@@H](CC(N)=O)C(=O)N[C@H]2C(=O)N[C@H]3C(=O)N[C@H](C(=O)N[C@H](C(=O)NCC(=O)Nc4ccc(NS(=O)(=O)c5ccccc5)cc4)c4cc(O)cc(O)c4-c4cc3ccc4O)[C@H](O)c3ccc(c(Cl)c3)Oc3cc2cc(c3O[C@@H]2O[C@H](CO)[C@@H](O)[C@H](O)[C@H]2O[C@H]2C[C@](C)(N)[C@H](O)[C@H](C)O2)Oc2ccc(cc2Cl)[C@H]1O [Vanc-60] | 0.39 µM (≈ 0.677 µg/mL) | 4 | 12.5 µM (≈ 21.7 µg/mL) | 16 | 12.5 µM (≈ 21.7 µg/mL) | 32 | 12.5 µM (≈ 21.7 µg/mL) | 32 | 25 µM (≈ 43.4 µg/mL) | 16 | > 250 µM | 219 ± 44 µM | 75 ± 29 µM | 181 µM | 0.39 µM (≈ 0.677 µg/mL) | 2 | 0.78 µM (≈ 1.35 µg/mL) | 8 | 0.39 µM (≈ 0.677 µg/mL) | 256 | MIC-fold improvement vs. vancomycin (MRSA KS2): 2; MIC (MRSA KS2): 0.39 µM (≈ 0.677 µg/mL); MIC-fold improvement vs. vancomycin (MRSA KS6): 1; MIC (MRSA KS6): 0.78 µM (≈ 1.35 µg/mL); MIC-fold improvement vs. vancomycin (MRSA KS89): 2; MIC (MRSA KS89): 0.39 µM (≈ 0.677 µg/mL); MIC-fold improvement vs. vancomycin (MRSA KS1): 2; MIC (MRSA KS1): 0.39 µM (≈ 0.677 µg/mL) |
| CN[C@H](CC(C)C)C(=O)N[C@H]1C(=O)N[C@@H](CC(N)=O)C(=O)N[C@H]2C(=O)N[C@H]3C(=O)N[C@H](C(=O)N[C@H](C(=O)NCCNC(=O)/C=C/c4cccc(OC)c4)c4cc(O)cc(O)c4-c4cc3ccc4O)[C@H](O)c3ccc(c(Cl)c3)Oc3cc2cc(c3O[C@@H]2O[C@H](CO)[C@@H](O)[C@H](O)[C@H]2O[C@H]2C[C@](C)(N)[C@H](O)[C@H](C)O2)Oc2ccc(cc2Cl)[C@H]1O [Vanc-23] | 0.39 µM (≈ 0.644 µg/mL) | 4 | 3.13 µM (≈ 5.17 µg/mL) | 64 | 25 µM (≈ 41.3 µg/mL) | 16 | 12.5 µM (≈ 20.6 µg/mL) | 32 | 25 µM (≈ 41.3 µg/mL) | 16 | > 250 µM | > 250 µM | > 250 µM | > 250 µM | 0.39 µM (≈ 0.644 µg/mL) | 2 | 0.78 µM (≈ 1.29 µg/mL) | 8 | 6.25 µM (≈ 10.3 µg/mL) | 16 | MIC-fold improvement vs. vancomycin (MRSA KS2): 2; MIC (MRSA KS2): 0.39 µM (≈ 0.644 µg/mL); MIC-fold improvement vs. vancomycin (MRSA KS6): 1; MIC (MRSA KS6): 0.78 µM (≈ 1.29 µg/mL); MIC-fold improvement vs. vancomycin (MRSA KS89): 1; MIC (MRSA KS89): 0.78 µM (≈ 1.29 µg/mL); MIC-fold improvement vs. vancomycin (MRSA KS1): 1; MIC (MRSA KS1): 0.78 µM (≈ 1.29 µg/mL) |

— publication PMC6001238, “Iterative Chemical Engineering of Vancomycin Leads to Novel Vancomycin Analogs With a High in Vitro Therapeutic Index” (Frontiers in Microbiology, 2018)
